Earlier results as cited in patent US6995188B2 (priority 2002, dated 2006).
Like-named read-outs stand apart in the source and are kept apart here.

Experiments:
[1] = system: P388 lymphocytic leukemia cells; details: mouse, in vivo, ip, cited from earlier work
[2] = system: APL and non-APL cell lines; details: compared with arsenic trioxide; cited from earlier work
[3] = system: patients with advanced leukemia; details: 8 patients, 3 days per week for 3 consecutive weeks; cited from earlier work

2,3,4,6-tetra-O-acetyl-1-S-hydroxyethylmethyl-1-thio-β-D-glucopyranose [Compound 4]
% T/C ([1]; 100 mg/kg): 116%

C[As](C)SCC(N)C(=O)O (racemic) [Compound 10, S-dimethylarsino-DL-cysteine]
% T/C ([1]; 50 mg/kg): 110%

CCCC[As](CCCC)S[C@@H]1O[C@H](COC(C)=O)[C@@H](OC(C)=O)[C@H](OC(C)=O)[C@H]1OC(C)=O [Compound 1, 2,3,4,6-tetra-O-acetyl-1-S-dibutylarsino-1-thio-β-D-glucopyranose]
% T/C ([1]; 100 mg/kg): 117%

CCC[As](CCC)S[C@@H]1O[C@H](COC(C)=O)[C@@H](OC(C)=O)[C@H](OC(C)=O)[C@H]1OC(C)=O [Compound 2, 2,3,4,6-tetra-O-acetyl-1-S-dipropylarsino-1-thio-β-D-glucopyranose]
% T/C ([1]; 200 mg/kg): 124%

CC[As](CC)S[C@@H]1O[C@H](COC(C)=O)[C@@H](OC(C)=O)[C@H](OC(C)=O)[C@H]1OC(C)=O [Compound 3, 2,3,4,6-tetra-O-acetyl-1-S-diethylarsino-1-thio-β-D-glucopyranose]
% T/C ([1]; 100 mg/kg): 180%

CCCCCCCCCCCCCCCC[As](CCCCCCCCCCCCCCCC)S[C@@H]1O[C@H](COC(C)=O)[C@@H](OC(C)=O)[C@H](OC(C)=O)[C@H]1OC(C)=O [Compound 5, 2,3,4,6-tetra-O-acetyl-1-S-dihexadecylarsino-1-thio-β-D-glucopyranose]
% T/C ([1]; 50 mg/kg): 125%

CC(=O)OC[C@H]1O[C@@H](S[As](C2CCCCC2)C2CCCCC2)[C@H](OC(C)=O)[C@@H](OC(C)=O)[C@@H]1OC(C)=O [Compound 6, 2,3,4,6-tetra-O-acetyl-1-S-dicyclohexylarsino-1-thio-β-D-glucopyranose]
% T/C ([1]; 400 mg/kg): Toxic

CC(C)CCC[C@@H](C)[C@H]1CC[C@H]2[C@@H]3CC=C4C[C@@H]([Se][As](C)C)CC[C@]4(C)[C@H]3CC[C@]12C [Compound 15, Se-dimethylarsino-selenocholesterol]
% T/C ([1]; 200 mg/kg): 129%

CC(=O)OC[C@H]1O[C@@H](S[As](C)C)[C@H](OC(C)=O)[C@@H](OC(C)=O)[C@H]1OC(C)=O [Compound 16, 2,3,4,6-tetra-O-acetyl-1-S-dimethylarsino-1-thio-β-D-galactopyranose]
% T/C ([1]; 100 mg/kg): 129%

CC(=O)N[C@@H]1[C@@H](OC(C)=O)[C@H](OC(C)=O)[C@@H](COC(C)=O)O[C@H]1S[As](C)C [Compound 18, 2-acetamido-3,4,6-tri-O-acetyl-2-deoxy-1-S-dimethylarsino-1-thio-β-D-glucopyranose]
% T/C ([1]; 50 mg/kg): 136%

CC(=O)N[C@H]1[C@@H](OC(C)=O)O[C@H](CS[As](C)C)[C@@H](OC(C)=O)[C@@H]1OC(C)=O [Compound 20, 2-acetamido-1,3,4-tri-O-acetyl-2-deoxy-6-S-dimethylarsino-6-thio-α-D-glucopyranose]
% T/C ([1]; 100 mg/kg): 136%

Nc1nc(N)nc(Nc2ccc([As]3SCC(CO)S3)cc2)n1 (centres unmarked) [melarsoprol]
activity against APL and non-APL cell lines [2]: activity at least equivalent to that of arsenic trioxide | antitumor effects [3]: Only one patient (with chronic lymphocytic leukemia) displayed antitumor effects | side effects [3]: most experienced neurological side effects
